8 compounds from PubChem BioAssay (NCI) can be followed below.

Among the test systems are BT-549 breast; CAKI-1 renal; COLO 205 colon; DU-145 prostate; HOP-62 NSCLC; K-562 leukemia; OVCAR-3 ovarian; OVCAR-8 ovarian; SN12C renal; UACC-62 melanoma.
What all share (assay): NCI tumour cell line growth inhibition, 48 h

The structures appear in SMILES notation. Values joined by “and” are separate entries in the source; they are usually repeats but may differ in a detail not shown here. Equal entries are not always repeated.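 How tested: cells in 96-well plates exposed to compound for 48 hours at five concentrations. GI50: concentration for 50% inhibition of growth. TGI: total growth inhibition.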

As for `O=C(c1cc(Cc2n[nH]c(=O)c3ccccc23)ccc1F)N1CCN(C(=O)C2CC2)CC1`, the GI50 in the assay with BT-549 breast was 32.2 µM and 33.6 µM; in the assay with CAKI-1 renal, 16.5 µM and 54.5 µM; with COLO 205 colon, greater than 100 µM; with DU-145 prostate, 33.5 µM and > 100 µM; in the assay on HOP-62 NSCLC it was 43.2 µM; in the assay with K-562 leukemia, 54.5 µM and > 66.4 µM. Also, the GI50 in the assay with OVCAR-3 ovarian is 32.8 µM and > 77.2 µM; in the assay with OVCAR-8 ovarian it was greater than 100 µM; in the assay with SN12C renal, greater than 100 µM; in the assay with UACC-62 melanoma it was 67.9 µM and 76.2 µM. Moreover, the TGI with BT-549 breast is greater than 100 µM; in the assay with CAKI-1 renal it was 48.1 µM and > 100 µM; in the assay on COLO 205 colon, greater than 100 µM; in the assay with DU-145 prostate it was greater than 100 µM; in the assay with HOP-62 NSCLC, greater than 100 µM; in the assay on K-562 leukemia it was greater than 100 µM. For the same compound, the TGI with OVCAR-3 ovarian, with OVCAR-8 ovarian, with SN12C renal and in the assay on UACC-62 melanoma was greater than 100 µM throughout.

Regarding `C[C@@H](NC(=O)c1ccc(F)cc1)c1ccc2c(c1)CCN2C(=O)C1CCOCC1`, the GI50 in the assay with BT-549 breast, in the assay with CAKI-1 renal, in the assay on COLO 205 colon, with DU-145 prostate, with HOP-62 NSCLC and in the assay with K-562 leukemia was greater than 100 µM in each case. Also, the GI50 with OVCAR-3 ovarian is greater than 100 µM; in the assay with OVCAR-8 ovarian, greater than 100 µM; in the assay with SN12C renal, greater than 100 µM; in the assay with UACC-62 melanoma, 93.5 µM. Moreover, the TGI in the assay on BT-549 breast, in the assay with CAKI-1 renal, in the assay on COLO 205 colon, in the assay with DU-145 prostate, with HOP-62 NSCLC and in the assay with K-562 leukemia was greater than 100 µM each time. Besides, the TGI in the assay with OVCAR-3 ovarian, in the assay on OVCAR-8 ovarian, with SN12C renal and with UACC-62 melanoma was greater than 100 µM throughout.

With `O=c1[nH]c2ccccc2n1C1CCN(CCCC(c2ccc(F)cc2)c2ccc(F)cc2)CC1`, the GI50 in the assay on BT-549 breast is 1.72 µM and 8.47 µM; in the assay with CAKI-1 renal, 1.39 µM and 7.46 µM; in the assay on COLO 205 colon, 1.31 µM; in the assay with DU-145 prostate, 1.73 µM and 13.7 µM; with HOP-62 NSCLC, 1.53 µM; in the assay with K-562 leukemia it was 1.88 µM. Besides, the GI50 in the assay with OVCAR-3 ovarian was 1.7 µM and 4.37 µM; in the assay with OVCAR-8 ovarian, 1.58 µM and 9.14 µM; in the assay on SN12C renal, 1.5 µM; in the assay with UACC-62 melanoma, 1.38 µM and 9.92 µM. Moreover, the TGI with BT-549 breast is 3.31 µM and 23.6 µM; in the assay with CAKI-1 renal, 2.96 µM and 20.9 µM; in the assay on COLO 205 colon it was 2.58 µM and 3.31 µM; with DU-145 prostate, 3.24 µM and 28.5 µM; in the assay with HOP-62 NSCLC, 2.89 µM and 22.3 µM; with K-562 leukemia, 4.54 µM and 17.4 µM. The TGI was 3.13 µM and 13.1 µM in the assay with OVCAR-3 ovarian; 3.28 µM and 24.3 µM in the assay on OVCAR-8 ovarian; 2.97 µM and 23.4 µM in the assay on SN12C renal; 2.75 µM and 23.5 µM in the assay with UACC-62 melanoma.

With `COc1cc(C(=O)/C=C/c2c(C(F)(F)F)nc3ccccn23)cc(OC)c1OC`, the GI50 in the assay with BT-549 breast was 1.64 µM; with CAKI-1 renal, 1.82 µM; with COLO 205 colon, 2.11 µM; in the assay on DU-145 prostate, 1.61 µM; in the assay with HOP-62 NSCLC, 2.97 µM; in the assay on K-562 leukemia it was 2.83 µM. Further, the GI50 is 1.83 µM with OVCAR-3 ovarian, 3.39 µM in the assay with OVCAR-8 ovarian, 2.09 µM in the assay with SN12C renal and 1.66 µM with UACC-62 melanoma. For the same compound, the TGI in the assay with BT-549 breast was 3.95 µM; in the assay on CAKI-1 renal, 4.44 µM; in the assay on COLO 205 colon, 4.36 µM; in the assay on DU-145 prostate, 3.51 µM; in the assay with HOP-62 NSCLC it was 8.53 µM; with K-562 leukemia it was greater than 100 µM. The TGI with OVCAR-3 ovarian is 3.61 µM; in the assay with OVCAR-8 ovarian it was greater than 100 µM; in the assay with SN12C renal, 6.49 µM; in the assay on UACC-62 melanoma, 3.32 µM.

For the compound `CSC1=Nc2c(c(C)c(-c3ccccc3)n2COC(CO)CO)C2=NC(=O)CN12`, the GI50 is greater than 100 µM in the assay on BT-549 breast; greater than 100 µM with CAKI-1 renal; greater than 100 µM with COLO 205 colon; greater than 100 µM in the assay with DU-145 prostate; 98.2 µM with HOP-62 NSCLC; greater than 100 µM with K-562 leukemia. The GI50 in the assay on OVCAR-3 ovarian, in the assay with OVCAR-8 ovarian, with SN12C renal and in the assay on UACC-62 melanoma was greater than 100 µM throughout. Moreover, the TGI with BT-549 breast, in the assay on CAKI-1 renal, in the assay with COLO 205 colon, in the assay with DU-145 prostate, with HOP-62 NSCLC and in the assay on K-562 leukemia was greater than 100 µM throughout. For the same compound, the TGI in the assay with OVCAR-3 ovarian, in the assay with OVCAR-8 ovarian, in the assay on SN12C renal and with UACC-62 melanoma was greater than 100 µM each time.

In the case of `COc1ccc(-c2[nH]c3ccccc3c2/C=C(\C#N)S(=O)(=O)c2ccccc2)cc1`, the GI50 with BT-549 breast is 1.63 µM; in the assay with CAKI-1 renal, 0.975 µM; in the assay with COLO 205 colon, 0.253 µM; in the assay on DU-145 prostate, 0.447 µM; in the assay with HOP-62 NSCLC it was 0.958 µM; in the assay with K-562 leukemia it was 0.535 µM. The GI50 in the assay with OVCAR-3 ovarian was 0.241 µM; in the assay with OVCAR-8 ovarian it was 1.29 µM; in the assay on SN12C renal, 1.34 µM; in the assay on UACC-62 melanoma, 0.597 µM. The TGI in the assay on BT-549 breast is greater than 76 µM; with CAKI-1 renal, greater than 31.6 µM; in the assay with COLO 205 colon, 0.67 µM; in the assay with HOP-62 NSCLC, greater than 35.3 µM; in the assay on K-562 leukemia, greater than 100 µM; in the assay with OVCAR-3 ovarian it was 0.673 µM. The TGI in the assay on OVCAR-8 ovarian is greater than 26.6 µM; in the assay on SN12C renal, greater than 100 µM; in the assay on UACC-62 melanoma it was 16.3 µM.

In the case of `Cc1ccc(S(=O)(=O)NC(=O)OC23COCN2COC3)cc1`, the TGI with BT-549 breast, with CAKI-1 renal, with COLO 205 colon, in the assay on DU-145 prostate, in the assay with HOP-62 NSCLC and with K-562 leukemia was greater than 100 µM in each case. Also, the TGI in the assay with OVCAR-3 ovarian, with OVCAR-8 ovarian, in the assay on SN12C renal and with UACC-62 melanoma was greater than 100 µM each time.

Take `C=C1C(=O)O[C@H]2[C@H]1CC/C(COC(=O)NCc1c[nH]c3ccc(F)cc13)=C\CC[C@@]1(C)O[C@@H]21`: the GI50 in the assay on BT-549 breast was 1.15 µM; in the assay on CAKI-1 renal, 1.53 µM; with COLO 205 colon, 1.39 µM; with DU-145 prostate, 1.08 µM; with HOP-62 NSCLC, 2 µM; in the assay with K-562 leukemia it was 0.291 µM. Besides, the GI50 was 0.984 µM with OVCAR-3 ovarian, 1.68 µM with OVCAR-8 ovarian, 1.32 µM in the assay on SN12C renal and 1.47 µM in the assay on UACC-62 melanoma. For the same compound, the TGI in the assay on BT-549 breast worked out at 2.5 µM; with CAKI-1 renal, 3.18 µM; in the assay with COLO 205 colon it was 2.95 µM; in the assay with DU-145 prostate it was 2.48 µM; with HOP-62 NSCLC, 4.56 µM; with K-562 leukemia, 1.86 µM. The TGI in the assay with OVCAR-3 ovarian amounted to 3.07 µM; in the assay with OVCAR-8 ovarian it was 3.91 µM; with SN12C renal it was 2.84 µM; with UACC-62 melanoma, 2.87 µM.
